Where two headings read alike, the source gives them in different places.
Key:
[1] = molecular target: T1, human p38 kinase alpha (Homo sapiens, UniProt Q16539); assay: p38 kinase in vitro assay, phosphorylation of biotinylated PHAS-I with gamma 32P-ATP; assay type: biochemical
T1 construct: The coding region of the human p38a cDNA was obtained by PCR-amplification from RNA isolated from the human monocyte cell line THP.1; GST (N); made in house; host or cells: E. coli DH10B
Procedure, shortened: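 MKK6-activated human p38α phosphorylates biotinylated PHAS-I with γ-32P-ATP in 25 mM HEPES pH 7.5, 10 mM Mg acetate, 50 μM unlabeled ATP, 1% DMSO, 30 °C for 1 h or overnight. Compounds at 100–0.001 μM (10-fold steps, triplicate); substrate captured on streptavidin filter plates and counted by scintillation.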

[2] = test system: TNF-α; assay: LPS stimulation of TNF production by U937 cells; assay type: cell-based, human; details: for inhibition at 1 µM: U-937, @ 1.0 uM, read-out: U937 Cell % inhib @ conc.
Procedure, shortened: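 PMA-differentiated human U937 cells (20 ng/ml PMA, 24 h, then 24-48 h rest) at 2 million cells/ml, 0.1% DMSO final, stimulated with E. coli LPS (100 ng/ml final) for 4 h at 37° C. TNF-α in medium measured by ELISA; IC50 in μM.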

[3] = read-out: P38 alpha kinase IC50
[4] = Homo sapiens, U-937, TNF production, LPS-stimulated human U937 cells, read-out: U937 Cell IC50
[5] = p38α in vitro, PHAS-I assay procedure, read-out: p38^1 IC50
[6] = Homo sapiens, U-937, LPS-stimulated U937 cells, read-out: U937 IC50
[7] = @ 1.0 uM, read-out: P38 alpha kinase % inhib @ conc.

T1 sequence (Q16539 whole entry): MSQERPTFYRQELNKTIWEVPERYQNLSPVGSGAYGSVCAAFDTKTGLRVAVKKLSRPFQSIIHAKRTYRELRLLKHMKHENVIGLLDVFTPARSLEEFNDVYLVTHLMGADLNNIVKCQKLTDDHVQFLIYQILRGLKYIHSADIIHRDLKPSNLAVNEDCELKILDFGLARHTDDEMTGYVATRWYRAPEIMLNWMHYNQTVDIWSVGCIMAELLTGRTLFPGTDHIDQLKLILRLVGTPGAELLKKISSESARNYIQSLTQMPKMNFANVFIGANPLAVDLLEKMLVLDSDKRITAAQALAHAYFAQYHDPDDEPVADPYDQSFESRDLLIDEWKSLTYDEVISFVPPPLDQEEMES

Compound | IC50 [1, 3] [µM] | inhibition at 1 µM ([2]; Homo sapiens) [%] | also measured
C=CCNC(=O)N[C@H](C)c1[nH]nc(-c2ccc(F)cc2)c1-c1ccncc1 [Example B-0412] | 0.24 | 48 | –
Cc1ccc(C)c(S(=O)(=O)N[C@H](C)c2[nH]nc(-c3ccc(F)cc3)c2-c2ccncc2)c1 [Example B-0468] | 0.031 | 93 | –
C=CCOC(=O)NCc1[nH]nc(-c2ccc(F)cc2)c1-c1ccncc1 [Example B-0033] | – | – | P38 alpha kinase % inhib @ conc. ([1]; @ 1.0 uM): 97.0% @ 1.0 uM; IC50 ([2]; TNF production, LPS-stimulated human U937 cells, read-out: U937 Cell IC50): 10 µM
CC(C)C(=O)NCc1[nH]nc(-c2ccc(F)cc2)c1-c1ccncc1 [Example B-0010] | 0.52 | – | IC50 [2, 4]: 0.65 µM
O=C(NCc1[nH]nc(-c2ccc(F)cc2)c1-c1ccncc1)c1cccc(C(F)(F)F)c1F [Example B-0285] | 4.57 | 29 | –
C[C@@H](NS(=O)(=O)c1ccc(S(=O)(=O)c2ccccc2)s1)c1[nH]nc(-c2ccc(F)cc2)c1-c1ccncc1 [Example B-0488] | 0.62 | 88 | –
O=C(NCc1[nH]nc(-c2ccc(F)cc2)c1-c1ccncc1)c1cccc(C(F)(F)F)c1 [Example B-0270] | 5.79 | 13 | –
O=C(NCc1[nH]nc(-c2ccc(F)cc2)c1-c1ccncc1)c1ccccn1 [Example B-0198] | 1.2 | 2 | –
OCCCNc1cc(-c2c[nH]nc2-c2ccc(F)cc2)ccn1 [Example A-282, 3-[[4-[3-(4-fluorophenyl)-1H-pyrazol-4-yl]-2-pyridinyl]amino]-1-propanol] | – | – | IC50 [1, 5]: 0.045 µM; IC50 [2, 6]: 0.0973 µM
O=C(NCc1[nH]nc(-c2ccc(F)cc2)c1-c1ccncc1)c1ccncc1 [Example B-0199] | 1.34 | 3 | –
O=S(=O)(NCc1[nH]nc(-c2ccc(F)cc2)c1-c1ccncc1)c1cccc(Br)c1 [Example B-0235] | 1.31 | 90 | –
O=C(NCc1[nH]nc(-c2ccc(F)cc2)c1-c1ccncc1)c1cc(F)cc(C(F)(F)F)c1 [Example B-0288] | 4.46 | 26 | –
O=C(NCc1[nH]nc(-c2ccc(F)cc2)c1-c1ccncc1)c1cc(Cl)cc(Cl)c1 [Example B-0273] | 5.03 | 13 | –
C[C@@H](NS(=O)(=O)C(F)(F)F)c1[nH]nc(-c2ccc(F)cc2)c1-c1ccncc1 [Example B-0391] | 0.86 | 18 | –
C[C@@H](NC(=O)[C@H]1CCCN1)c1[nH]nc(-c2ccc(F)cc2)c1-c1ccncc1 [Example B-0427] | 0.63 | 39 | –
O=C(NCc1[nH]nc(-c2ccc(F)cc2)c1-c1ccncc1)c1cccc(Br)c1 [Example B-0073] | – | 24 | inhibition at 1 µM [1, 7]: 91%
C[C@@H](NC(=O)c1cc(F)cc(F)c1)c1[nH]nc(-c2ccc(F)cc2)c1-c1ccncc1 [Example B-0502] | 0.065 | 48 | –
Cc1c(C)c(S(=O)(=O)NCc2[nH]nc(-c3ccc(F)cc3)c2-c2ccncc2)c(C)c2c1OC(C)(C)CC2 [Example B-0257] | 1.71 | 11 | –
C[C@@H](NC(=O)Cc1cccs1)c1[nH]nc(-c2ccc(F)cc2)c1-c1ccncc1 [Example B-0423] | 0.18 | 33 | –
CC(NC(=O)Cc1cccs1)c1[nH]nc(-c2ccc(F)cc2)c1-c1ccncc1 (centres unmarked) [Example B-0600] | 0.002 | – | U937 Cell % inhib @ conc. ([2]; @ 1.0 uM): 28.0% @ 1.0 uM
COc1cc(OC)c(NC(=O)NCc2[nH]nc(-c3ccc(F)cc3)c2-c2ccncc2)cc1Cl [Example B-0187] | – | 14 | inhibition at 10 µM ([1]; @ 10.0 uM, read-out: P38 alpha kinase % inhib @ conc.): 4%
CCOC(=O)NCc1[nH]nc(-c2ccc(F)cc2)c1-c1ccncc1 [Example B-0204] | 0.21 | 48 | –
O=S(=O)(NCc1[nH]nc(-c2ccc(F)cc2)c1-c1ccncc1)c1c(Cl)cccc1Cl [Example B-0233] | 0.095 | 43 | –
Cc1cccc(C)c1NC(=O)N[C@H](C)c1[nH]nc(-c2ccc(F)cc2)c1-c1ccncc1 [Example B-0411] | 0.62 | 50 | –
CN(C)S(=O)(=O)NCc1[nH]nc(-c2ccc(F)cc2)c1-c1ccncc1 [Example B-0264] | 0.14 | 18 | –
CNC(=O)NCc1[nH]nc(-c2ccc(F)cc2)c1-c1ccncc1 [Example B-0211] | 0.25 | 30 | –

Compound | IC50 [1, 3] [µM] | inhibition at 1 µM ([2]; Homo sapiens) [%] | also measured
Cc1ccc(S(=O)(=O)N[C@@H](Cc2ccccc2)C(=O)N[C@H](C)c2[nH]nc(-c3ccc(F)cc3)c2-c2ccncc2)cc1 [Example B-0383] | 1.43 | 10 | –
C[C@@H](NC(=O)c1ccc(C(F)(F)F)cc1)c1[nH]nc(-c2ccc(F)cc2)c1-c1ccncc1 [Example B-0527] | 1.09 | 63 | –
Cc1onc(-c2c(F)cccc2Cl)c1C(=O)NCc1[nH]nc(-c2ccc(F)cc2)c1-c1ccncc1 [Example B-0055] | – | – | inhibition at 1 µM [1, 7]: 93%; IC50 [2, 4]: > 1 µM
Cn1cnc(S(=O)(=O)NCc2[nH]nc(-c3ccc(F)cc3)c2-c2ccncc2)c1 [Example B-0266] | 0.25 | 24 | –
C[C@@H](NC(=O)c1cccc(Cl)c1Cl)c1[nH]nc(-c2ccc(F)cc2)c1-c1ccncc1 [Example B-0504] | 0.4 | 43 | –
CN(C)CCn1cc(-c2ccnc(NCc3ccc(F)cc3)c2)c(-c2ccc(F)cc2)n1 [Example A-274, 4-[1-[2-(dimethylamino)ethyl]-3-(4-fluorophenyl)-1H-pyrazol-4-yl]-N-[(4-fluorophenyl)methyl]-2-pyridinamine] | – | – | IC50 [1, 5]: < 0.1 µM; IC50 [2, 6]: 0.92 µM
C[C@@H](NC(=O)c1c(F)cccc1C(F)(F)F)c1[nH]nc(-c2ccc(F)cc2)c1-c1ccncc1 [Example B-0509] | 0.1 | 86 | –
C[C@@H](NS(=O)(=O)c1ccccc1C(F)(F)F)c1[nH]nc(-c2ccc(F)cc2)c1-c1ccncc1 [Example B-0458] | 0.033 | 70 | –
CC(C)COC(=O)N[C@H](C)c1[nH]nc(-c2ccc(F)cc2)c1-c1ccncc1 [Example B-0382] | 0.41 | 32 | –
CC(Oc1ccccc1)C(=O)NCc1[nH]nc(-c2ccc(F)cc2)c1-c1ccncc1 (centres unmarked) [Example B-0202] | 0.55 | – | IC50 [2, 4]: 2.26 µM
C[C@@H](NS(=O)(=O)c1cccc2ccccc12)c1[nH]nc(-c2ccc(F)cc2)c1-c1ccncc1 [Example B-0441] | 0.8 | 58 | –
O=C(NCc1[nH]nc(-c2ccc(F)cc2)c1-c1ccncc1)c1ccccc1Br [Example B-0301] | 0.19 | 50 | –
COc1ccc(S(=O)(=O)NCc2[nH]nc(-c3ccc(F)cc3)c2-c2ccncc2)c([N+](=O)[O-])c1 [Example B-0141] | – | 10 | inhibition at 1 µM [1, 7]: 78%
O=C(NCc1[nH]nc(-c2ccc(F)cc2)c1-c1ccncc1)C1CC1 [Example B-0089] | 0.04 | – | IC50 [2, 4]: 3.33 µM
Cc1noc(C)c1S(=O)(=O)NCc1[nH]nc(-c2ccc(F)cc2)c1-c1ccncc1 [Example B-0251] | 0.31 | 1 | –
C[C@@H](NC(=O)c1cc(F)cc(C(F)(F)F)c1)c1[nH]nc(-c2ccc(F)cc2)c1-c1ccncc1 [Example B-0513] | 0.72 | 52 | –
C[C@@H](NS(=O)(=O)c1ccc(CNC(=O)c2ccccc2)s1)c1[nH]nc(-c2ccc(F)cc2)c1-c1ccncc1 [Example B-0480] | 0.12 | 88 | –
CC(C)c1ccc(S(=O)(=O)NCc2[nH]nc(-c3ccc(F)cc3)c2-c2ccncc2)cc1 [Example B-0123] | – | – | inhibition at 1 µM [1, 7]: 59%; IC50 [2, 4]: > 1 µM
O=C(NCc1[nH]nc(-c2ccc(F)cc2)c1-c1ccncc1)[C@H]1CCCN1C(=O)OCC1c2ccccc2-c2ccccc21 [Example B-0197] | 2 | 14 | –
CC(=O)O[C@@H](C)C(=O)NCc1[nH]nc(-c2ccc(F)cc2)c1-c1ccncc1 [Example B-0083] | 0.22 | – | IC50 [2, 4]: 6.51 µM
C[C@@H](NS(=O)(=O)c1ccccc1Cl)c1[nH]nc(-c2ccc(F)cc2)c1-c1ccncc1 [Example B-0463] | 0.052 | 95 | –
O=C(NCc1[nH]nc(-c2ccc(F)cc2)c1-c1ccncc1)c1sc2ccccc2c1Cl [Example B-0058] | – | 18 | inhibition at 1 µM [1, 7]: 79%
COC(=O)CCC(=O)NCc1[nH]nc(-c2ccc(F)cc2)c1-c1ccncc1 [Example B-0077] | 0.8 | – | IC50 [2, 4]: 10 µM
O=C(NCc1[nH]nc(-c2ccc(F)cc2)c1-c1ccncc1)c1cccc(Cl)c1Cl [Example B-0279] | 1.39 | 33 | –
C[C@@H](NC(=O)c1ccc(I)cc1)c1[nH]nc(-c2ccc(F)cc2)c1-c1ccncc1 [Example B-0363] | 4.67 | 25 | –
C[C@@H](NS(=O)(=O)c1ccc(-c2ccccn2)s1)c1[nH]nc(-c2ccc(F)cc2)c1-c1ccncc1 [Example B-0483] | 0.57 | 68 | –

Source: patent publication US6525059B1, “Substituted pyrazoles as p38 kinase inhibitors” (G. D. Searle & Company, priority 1998, dated 2003)
